This passage reports IC50 and inhibition results from patent EP2033655B1 (priority 2007, dated 2009).

The test has as its target T1, cell-surface expressed nucleolin (Homo sapiens, UniProt P19338).
T1 construct: endogenous in cells; host or cells: HeLa P4 cells
As to the kind of experiment: cell-based.

Each structure is given as a SMILES string. Side chains are listed from the residue outwards. Peptide text beside a SMILES is read from it. * marks the point of attachment. X1 = NCCCC[C@H](N)CN1CCC[C@H]1C(=O)* Where only a bound is given, the exact number is not on record here.

T1 sequence (P19338 whole entry): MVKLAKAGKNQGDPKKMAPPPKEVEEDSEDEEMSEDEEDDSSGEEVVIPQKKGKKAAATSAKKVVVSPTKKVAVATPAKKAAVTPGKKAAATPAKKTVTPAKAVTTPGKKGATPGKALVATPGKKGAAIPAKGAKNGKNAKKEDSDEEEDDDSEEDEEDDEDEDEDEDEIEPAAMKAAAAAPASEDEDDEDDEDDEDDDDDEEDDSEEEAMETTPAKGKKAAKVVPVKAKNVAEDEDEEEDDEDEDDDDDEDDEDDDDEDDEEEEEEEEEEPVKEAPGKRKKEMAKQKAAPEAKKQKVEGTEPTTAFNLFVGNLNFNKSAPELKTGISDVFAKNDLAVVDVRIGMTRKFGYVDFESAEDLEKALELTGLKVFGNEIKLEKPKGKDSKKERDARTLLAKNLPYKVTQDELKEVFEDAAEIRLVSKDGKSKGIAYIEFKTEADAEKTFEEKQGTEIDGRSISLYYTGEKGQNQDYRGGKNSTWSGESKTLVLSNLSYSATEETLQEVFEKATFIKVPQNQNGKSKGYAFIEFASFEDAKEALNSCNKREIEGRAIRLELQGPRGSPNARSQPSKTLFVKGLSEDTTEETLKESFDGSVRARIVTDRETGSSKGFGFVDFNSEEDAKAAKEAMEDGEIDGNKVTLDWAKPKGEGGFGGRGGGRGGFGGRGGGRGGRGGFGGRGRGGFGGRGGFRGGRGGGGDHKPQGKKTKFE

What is called IC50 is the concentration at which inhibition is half-maximal. A higher IC50 goes with a need for much substance. `CC(=O)N[C@@H](CCCCNC(=O)[C@H](CCCNC(=N)N)NC(=O)[C@@H]1CCCN1C[C@@H](N)CCCCN)C(=O)N[C@@H](C)C(=O)N[C@@H](CCCCNC(=O)[C@H](CCCNC(=N)N)NC(=O)[C@@H]1CCCN1C[C@@H](N)CCCCN)C(=O)N1CCC[C@H]1C(=O)NCC(=O)N[C@@H](CCCCNC(=O)[C@H](CCCNC(=N)N)NC(=O)[C@@H]1CCCN1C[C@@H](N)CCCCN)C(=O)N[C@@H](C)C(=O)N[C@@H](CCCCNC(=O)[C@H](CCCNC(=N)N)NC(=O)[C@@H]1CCCN1C[C@@H](N)CCCCN)C(=O)N1CCC[C@H]1C(=O)NCC(=O)N[C@@H](CCCCNC(=O)[C@H](CCCNC(=N)N)NC(=O)[C@@H]1CCCN1C[C@@H](N)CCCCN)C(=O)N[C@@H](C)C(=O)N[C@@H](CCCCNC(=O)[C@H](CCCNC(=N)N)NC(=O)[C@@H]1CCCN1C[C@@H](N)CCCCN)C(=O)N1CCC[C@H]1C(=O)NCC(N)=O` [Nucant 7] (Ac-K([Arg-X1])AK([Arg-X1])PGK([Arg-X1])AK([Arg-X1])PGK([Arg-X1])AK([Arg-X1])PG-NH2): the IC50 was < 100 nM. Further, for the setting “HeLaP4, read-out: inhibitory activity”, the inhibition at 0.8 µM was > 95%.
